Assay results as given in patent publication US10335392B2, “Cyclic compounds useful as modulators of TNF α” (BRISTOL-MYERS SQUIBB COMPANY, priority 2015, dated 2019).

Biological target: TNFα (Homo sapiens (Human), UniProt P01375)
Assay: TNF induced HEK-Blue assay
Type: cell-based
Conditions: TNFα 0.5 ng/ml; HEK-Blue-CD40L cells, NF-kB-driven secreted alkaline phosphatase reporter; 18 h
Method: TNF or CD40L-Induced HEK-Blue Assay
Test compounds serially diluted in DMSO were plated in an assay plate (LABCYTE, Cat. # LP-0200) at final concentrations ranging from 0.004 μM to 25 μM. TNFα (final concentration 0.5 ng/ml) or CD40L (final concentration 30 ng/ml) in assay buffer [DMEM, 4.5 g/l glucose (Gibco, Cat. 21063-029), 10% FBS (Sigma, F4135), 1% Penicillin-Streptomycin (Gibco, Cat. 15140-122), 1% Anti-Anti (Gibco, Cat. 15240-112) and 2 mM L-glutamine (Gibco, Cat. 25030-081)] was then added to the assay plate. After a 30 minute pre-incubation at 37° C. and 5% CO2, HEK-Blue™-CD40L cells (INVIVOGEN, Cat. Code hkb-cd40) containing a NF-kB-driven secreted alkaline phosphatase reporter gene were seeded into the assay plate at a density of 20,000 cells per well. This plate was then incubated for 18 h at 37° C. and 5% CO2. Secreted alkaline phosphatase expression was measured using QUANTI-Blue™ (INVIVOGEN, Cat. Code rep-qb1) according to manufacturer's specifications and the assay plate was read on a PerkinElmer Envision at 620 nm.
Inhibition data for the test compound over a range of concentrations was plotted as percentage inhibition of the test compound (100%=maximum inhibition). IC50 values were determined after correcting for background [(sample read−mean of low control)/(mean of high control−mean of low control)] where by the low control is DMSO without stimulation and high control is DMSO with stimulation. The IC50 is defined as the concentration of test compound which produces 50% inhibition and was quantified using the 4 parameter logistic equation to fit the data.

Sequence of TNFα (P01375 77-233): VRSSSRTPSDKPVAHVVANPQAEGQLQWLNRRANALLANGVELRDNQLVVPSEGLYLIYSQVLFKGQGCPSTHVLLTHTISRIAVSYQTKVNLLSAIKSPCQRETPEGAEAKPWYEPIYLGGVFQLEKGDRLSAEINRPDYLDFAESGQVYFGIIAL

**Q.** With `CNC(=O)c1ccc(-c2cc3c(cc2F)nc2n3[C@@H](c3ccccc3OC(F)F)[C@H]3C[C@@H]23)cn1` [Example 8, 5-((1aR,8R,8aS)-8-(2-(difluoromethoxy)phenyl)-4-fluoro-1,1a,8,8a-tetrahydrobenzo[d]cyclopropa[3,4]pyrrolo[1,2-a]imidazol-5-yl)-N-methylpicolinamide] as the compound, how does the IC50 read?
**A.** The IC50 was 1 to 10 µM.

**Q.** `O=C1CN(c2ncc(-c3cc4c(cc3F)nc3n4[C@@H](c4ccccc4OC(F)F)[C@H]4C[C@@H]34)cn2)CCN1` [Example 9, 4-(5-((1aR,8R,8aS)-8-(2-(difluoromethoxy)phenyl)-4-fluoro-1,1a,8,8a-tetrahydrobenzo[d]cyclopropa[3,4]pyrrolo[1,2-a]imidazol-5-yl)pyrimidin-2-yl)piperazin-2-one] was tested. Which IC50 did it give?
**A.** Its IC50 is < 1 µM.

**Q.** With `N#Cc1ccc(-c2cc3c(cc2F)nc2n3[C@@H](c3ccccc3OC(F)F)[C@H]3C[C@@H]23)cn1` [Example 10, 5-((1aR,8R,8aS)-8-(2-(difluoromethoxy)phenyl)-4-fluoro-1,1a,8,8a-tetrahydrobenzo[d]cyclopropa[3,4]pyrrolo[1,2-a]imidazol-5-yl)picolinonitrile] as the compound, how does the IC50 read?
**A.** The IC50 was 1 to 10 µM.

**Q.** With `CC(C)(O)c1ccc(-c2cc3c(cc2F)nc2n3[C@@H](c3ccccc3OC(F)F)[C@H]3C[C@@H]23)cc1` [Example 12, 2-(4-((1aR,8R,8aS)-8-(2-(difluoromethoxy)phenyl)-4-fluoro-1,1a,8,8a-tetrahydrobenzo[d]cyclopropa[3,4]pyrrolo[1,2-a]imidazol-5-yl)phenyl)propan-2-ol] as the compound, how does the IC50 read?
**A.** Its IC50 is < 1 µM.

**Q.** With `CC(C)(O)c1ccc(-c2cc3c(cc2F)nc2n3[C@@H](c3ccccc3OC(F)F)[C@H]3C[C@@H]23)cn1` [Example 13, 2-(5-((1aR,8R,8aS)-8-(2-(difluoromethoxy)phenyl)-4-fluoro-1,1a,8,8a-tetrahydrobenzo[d]cyclopropa[3,4]pyrrolo[1,2-a]imidazol-5-yl)pyridin-2-yl)propan-2-ol] as the compound, how does the IC50 read?
**A.** Its IC50 is < 1 µM.

**Q.** With `OC1(c2ncc(-c3cc4c(cc3F)nc3n4[C@@H](c4ccccc4OC(F)F)[C@H]4C[C@@H]34)cn2)COC1` [Example 14, 3-(5-((1aR,8R,8aS)-8-(2-(difluoromethoxy)phenyl)-4-fluoro-1,1a,8,8a-tetrahydrobenzo[d]cyclopropa[3,4]pyrrolo[1,2-a]imidazol-5-yl)pyrimidin-2-yl)oxetan-3-ol] as the compound, how does the IC50 read?
**A.** The IC50 was < 1 µM.

**Q.** How did the IC50 turn out when `O=S1(=O)CCN(c2ncc(-c3cc4c(cc3F)nc3n4[C@@H](c4ccccc4OC(F)F)[C@H]4C[C@@H]34)cn2)CC1` [Example 15, 4-(5-((1aR,8R,8aS)-8-(2-(difluoromethoxy)phenyl)-4-fluoro-1,1a,8,8a-tetrahydrobenzo[d]cyclopropa[3,4]pyrrolo[1,2-a]imidazol-5-yl)pyrimidin-2-yl) thiomorpholine 1,1-dioxide] was run?
**A.** The IC50 was < 1 µM.

**Q.** `CC(C)(O)Cn1cc(-c2cc3c(cc2F)nc2n3[C@@H](c3ccccc3OC(F)F)[C@H]3C[C@@H]23)cn1` [Example 16, 1-(4-((1aR,8R,8aS)-8-(2-(difluoromethoxy)phenyl)-4-fluoro-1,1a,8,8a-tetrahydrobenzo[d]cyclopropa[3,4]pyrrolo[1,2-a]imidazol-5-yl)-1H-pyrazol-1-yl)-2-methylpropan-2-ol] was tested. Which IC50 did it give?
**A.** Its IC50 is 1 to 10 µM.

**Q.** For `CC(C)(C)OC(=O)N1CC=C(c2cc3c(cc2F)nc2n3[C@@H](c3ccccc3OC(F)F)[C@H]3C[C@@H]23)CC1` [Example 17, tert-butyl 4-((1aR,8R,8aS)-8-(2-(difluoromethoxy)phenyl)-4-fluoro-1,1a,8,8a-tetrahydrobenzo[d]cyclopropa[3,4]pyrrolo[1,2-a]imidazol-5-yl)-3,6-dihydropyridine-1(2H)-carboxylate], which IC50 is on record?
**A.** Its IC50 is 1 to 10 µM.

**Q.** How did the IC50 turn out when `O=C(O)CN1CCN(c2ncc(-c3cc4c(cc3F)nc3n4[C@H](c4ccccc4OC(F)F)[C@@H]4C[C@H]34)cn2)CC1` [Example 18, 2-(4-(5-((1aS,8S,8aR)-8-(2-(difluoromethoxy)phenyl)-4-fluoro-1,1a,8,8a-tetrahydrobenzo[d]cyclopropa[3,4]pyrrolo[1,2-a]imidazol-5-yl)pyrimidin-2-yl)piperazin-1-yl)acetic acid] was run?
**A.** Its IC50 is < 1 µM.

**Q.** How did the IC50 turn out when `NC(=O)c1ccc(-c2cc3c(cc2F)nc2n3[C@H](c3ccccc3OC(F)F)[C@@H]3C[C@H]23)cn1` [Example 19, 5-((1aS,8S,8aR)-8-(2-(difluoromethoxy)phenyl)-4-fluoro-1,1a,8,8a-tetrahydrobenzo[d]cyclopropa[3,4]pyrrolo[1,2-a]imidazol-5-yl)picolinamide] was run?
**A.** Its IC50 is 1 to 10 µM.

**Q.** How did the IC50 turn out when `NC(=O)c1ccc(-c2cc3c(cc2F)nc2n3[C@@H](c3ccccc3OC(F)F)[C@@H]3C[C@H]23)cn1` [Example 22, 5-((1aS,8R,8aR)-8-(2-(difluoromethoxy)phenyl)-4-fluoro-1,11a,8,8a-tetrahydrobenzo[d]cyclopropa[3,4]pyrrolo[1,2-a]imidazol-5-yl)picolinamide] was run?
**A.** Its IC50 is < 1 µM.

**Q.** How did the IC50 turn out when `CC(C)(O)c1ncc(-c2cc3c(cc2F)nc2n3[C@@H](c3ccccc3Oc3ccccc3)[C@@H]3C[C@H]23)cn1` [Example 27, 2-(5-((1aS,8R,8aR)-4-fluoro-8-(2-phenoxyphenyl)-1,1a,8,8a-tetrahydrobenzo[d]cyclopropa[3,4]pyrrolo[1,2-a]imidazol-5-yl)pyrimidin-2-yl)propan-2-ol] was run?
**A.** The IC50 was 1 to 10 µM.

**Q.** `CC(C)(O)c1ncc(-c2cc3c(cc2F)nc2n3[C@H](c3ccccc3Oc3ccccc3)[C@@H]3C[C@H]23)cn1` [Example 28, 2-(5-((1aS,8S,8aR)-4-fluoro-8-(2-phenoxyphenyl)-1,1a,8,8a-tetrahydrobenzo[d]cyclopropa[3,4]pyrrolo[1,2-a]imidazol-5-yl)pyrimidin-2-yl)propan-2-ol] was tested. Which IC50 did it give?
**A.** The IC50 was 1 to 10 µM.

**Q.** For `CC(C)(O)c1ncc(-c2cc3c(cc2F)nc2n3[C@@H](c3ccccc3Oc3ccccc3F)[C@@H]3C[C@H]23)cn1` [Example 29, 2-(5-((1aS,8R,8aR)-4-fluoro-8-(2-(2-fluorophenoxy)phenyl)-1,1a,8,8a-tetrahydrobenzo[d]cyclopropa[3,4]pyrrolo[1,2-a]imidazol-5-yl)pyrimidin-2-yl)propan-2-ol], which IC50 is on record?
**A.** Its IC50 is 1 to 10 µM.

**Q.** Which IC50 does the source give for `CC(C)(O)c1ncc(-c2cc3c(cc2F)nc2n3[C@H](c3ccccc3Oc3ccccc3F)[C@@H]3C[C@H]23)cn1` [Example 30, 2-(5-((1aS,8S,8aR)-4-fluoro-8-(2-(2-fluorophenoxy)phenyl)-1,1a,8,8a-tetrahydrobenzo[d]cyclopropa[3,4]pyrrolo[1,2-a]imidazol-5-yl)pyrimidin-2-yl)propan-2-ol] here?
**A.** Its IC50 is 10 to 25 µM.

**Q.** `Fc1cc2nc3n(c2cc1-c1cnc(N2CCOCC2)nc1)[C@@H](c1ccccc1OC(F)F)[C@@H]1C[C@H]31` [Example 31, 4-(5-((1aS,8R,8aR)-8-(2-(difluoromethoxy)phenyl)-4-fluoro-1,1a,8,8a-tetrahydrobenzo[d]cyclopropa[3,4]pyrrolo[1,2-a]imidazol-5-yl)pyrimidin-2-yl) morpholine] was tested. Which IC50 did it give?
**A.** The IC50 was < 1 µM.

**Q.** Which IC50 does the source give for `Fc1cc2nc3n(c2cc1-c1cnc(N2CCOCC2)nc1)[C@H](c1ccccc1OC(F)F)[C@@H]1C[C@H]31` [Example 32, 4-(5-((1aS,8S,8aR)-8-(2-(difluoromethoxy)phenyl)-4-fluoro-1,1a,8,8a-tetrahydrobenzo[d]cyclopropa[3,4]pyrrolo[1,2-a]imidazol-5-yl)pyrimidin-2-yl) morpholine] here?
**A.** The IC50 was 1 to 10 µM.
